Measurements published in the pKa sets of Baltruschat and Czodrowski (2020).

Conditions: acidic group

Row | Compound | pKa
1 | O=C([O-])/C=C/C([O-])=C/C(=O)CC(=O)[O-] | 10.5

Same assay, conditions: basic group

Row | Compound | pKa
2 | C1CCc2c(nnc3c2CCCC3)C1 | 6.12
3 | Cn1cccnc1=N | 10.8
4 | C=C[C@]1(O)CN2CC[C@H]1C[C@H]2[C@H](O)c1cc([O-])[nH+]c2ccccc12 | 7.65
5 | Nc1cnccn1 | 3.14
6 | [O-]c1[nH+]cnc2nc[nH]c12 | 1.99
7 | Oc1ccc2cccnc2c1 | 5.48
8 | NCCC[n+]1ccc2ccccc2c1 | 8.97
9 | C[NH+](C)C[C@H]1[C@@H]2CC[C@@](C)([C@H]1N)C2(C)C | 6.59
10 | CC(N)c1ccccc1 (centres undefined) | 9.36
11 | COc1ncnc2ccccc12 | 3.13
12 | CCOc1ccc2[nH]c(CC(C)C)nc2c1 | 6.07
13 | CCCN(C)N(C)CCC | 7.05
14 | CC(C)c1nc2ccccc2[nH]1 | 6.23
15 | Cc1ccnc(N)c1 | 7.48
16 | C=C(C)C(=O)OC(C)CN(C)C (centres undefined) | 7.96
17 | C1CNCCSCCNC1 | 12
18 | CC(C#N)CN (centres undefined) | 7.75
19 | COc1ccccc1C(=O)N[C@@H]1C[C@H]2CC[C@@H](C1)N2Cc1ccccc1 | 8.88
20 | COc1ccc(C[NH3+])cc1N | 4.16
21 | Cc1ccc2c(c1)NCCN2 | 4.97
22 | Nc1nnnn1-c1cccc(Cl)c1 | 0.7

Row | Compound | pKa
23 | CCOC(=O)c1cnc2ccccc2c1OCC | 3.88
24 | c1ccc(-n2cnnn2)cc1 | -3.41
25 | CC[NH+](CC)CCCC(C)Nc1ccnc2ccccc12 (centres undefined) | 8.81
26 | COc1ccc2c3c1O[C@H]1[C@@H](O)CC[C@H]4[C@@H](C2)N(C)CC[C@@]341 | 8.71
27 | CN1CCC2Cc3ccc(O)c(O)c3C3CCCC1C23 (centres undefined) | 7.58
28 | CCOCCn1c(CN2CCN(CCCCn3cccn3)CC2)nc2ccccc21 | 7.9
29 | Cc1ccc(N)cc1 | 5.04
30 | c1ccc(-c2ccc3ncc(CN4CCOCC4)n3n2)cc1 | 6.21
31 | C#C[C@]1(O)C[C@@H](C)N[C@@H]2CCCC[C@H]21 | 9.73
32 | O=C([O-])C(NCCNC(C(=O)[O-])c1ccccc1[O-])c1ccccc1[O-] (centres undefined) | 11.7
33 | Cn1cc([O-])nc1N | 13.4
34 | OCc1ccc(-c2nccc3c2[nH]c2ccccc23)o1 | 5.7
35 | CSc1nc(N)n[nH]1 | 3.27
36 | CCN(CC)CCCCNc1ccnc2ccccc12 | 10.2
37 | COc1ccnc2c1ccc1c(OC)ccnc12 | 6.45
38 | O=C(O)c1cccc(O)c1 | -1.01
39 | NC1(C(=O)[O-])CCCCC1 | 10
40 | C[C@@H]1CCC[C@H](C)N1C | 10.2
41 | O=[N+]([O-])c1ccc2[nH]c(C(F)(F)F)nc2c1 | 0.18
42 | CN1CCCN(C)Cc2ccccc2OCCOc2ccccc2C1 | 10.1
43 | COC1CC2CCN1CC2 (centres undefined) | 8.87

Row | Compound | pKa
44 | Clc1cccc(-c2ccccn2)n1 | 3.7
45 | C=C(C)C(=O)OCCNCC(C)C | 8.91
46 | Oc1ccc2ccnnc2c1 | 3.31
47 | N/C(=N\O)C([NH3+])c1ccccc1 (centres undefined) | 2.3
48 | CCN(CC)C(C)(C)C=O | 8.3
49 | CCN(CC)c1nc(N)nc(N(CC)CC)n1 | 6.28
50 | C1N2CN3CN1CN(C2)C3 | 4.95
51 | CNC(C(=O)[O-])C(C)C (centres undefined) | 9.9
52 | Cc1cc(-c2ccccc2)nn2cc(CN3CCOCC3)nc12 | 6.3
53 | O=C([O-])CN(CC(=O)[O-])Cc1nc2ccccc2[nH]1 | 6.87
54 | NCCc1ccc([O-])cc1 | 10.4
55 | CCN(CC)CC1CO1 (centres undefined) | 8.55
56 | N[C@H]1CCC[C@@H]1O | 9.28
57 | OCCNC1CC[NH+](Cc2ccccc2)CC1 | 6.67
58 | Cc1ccccc1C(=N)c1ccccc1 | 7.21
59 | Cc1cc(-c2ccccc2)n[n+](C)c1NCCN1CCOCC1 | 5.12
60 | c1ccc(-c2cnc3c(ccc4cccnc43)c2)cc1 | 4.82
61 | CN(C)c1ccncc1 | 9.7
62 | COc1ccc(NCCS)cc1 | 5.3
63 | CCN(CC)CCOC(=O)c1ccccc1 | 8.9
64 | CN(C)CCOC(c1ccccc1)c1ccc(Br)cc1 (centres undefined) | 8.64

Row | Compound | pKa
65 | Cc1ccc(N)cc1CN | 9.33
66 | CCN(CC)N(C)C | 6.88
67 | [S-]c1ncc2nc[nH]c2n1 | 7.15
68 | CCN(CC)CC(=N\[O-])/C(C)=N/O | 11.9
69 | CC(C)(N)C(C)(C)[NH3+] | 6.56
70 | CSc1ccc(N)cc1Cl | 3.38
71 | Nc1cc(N)c2ccccc2n1 | 9.45
72 | O=C(/C=C/c1c[nH]cn1)OCCCl | 4.8
73 | OCCc1cnc(P(c2ncc(CCO)[nH]2)c2[nH]c(CCO)c[nH+]2)[nH]1 | 6.84
74 | COc1ccc(F)cc1C(=O)N[C@@H]1C[C@H]2CC[C@@H](C1)N2Cc1ccccc1 | 8.82
75 | N#CCCN | 7.75
76 | Cc1cnc2c(ccc3c(C)ccnc32)c1 | 5.57
77 | CN1C[C@@H](C(=O)[O-])C[C@@]2(O)c3cccc4[nH]cc(c34)C[C@@H]12 | 9.2
78 | COC(=O)[C@@H]1[C@@H](O)C[C@H]2CC[C@@H]1N2C | 8.21
79 | CCCN(C)c1ccccc1 | 5.67
80 | Nc1nc[nH]n1 | 4.3
81 | N=C(N)Nc1ccccc1 | 10.8
82 | Cc1cc(N)ncn1 | 6.25
83 | Nc1ncnc2ncn([C@H]3O[C@H](CO)[C@@H](O)[C@H]3O)c12 | 3.9
84 | CC(Cc1ccccc1)NCCC#N (centres undefined) | 7.23
